Test results from PubChem BioAssay AID248 (DTP/NCI, 2004).
“And” between values parts separate entries of the source, which are not always exact repeats. Equal values may be shown once. Inconclusive results and toxic doses are left out. No stated cut-off is given here; in the data, active means T/C of 150% or more; inactive means T/C below 125%.

Tested on: L1210 leukemia ip in BDF1 mice, survival T/C
Experiment: NCI In Vivo Anticancer Drug Screen. Data for tumor model L1210 Leukemia (intraperitoneal) in B6D2F1 (BDF1) mice
Details: endpoint: mean survival time, higher = longer survival
Procedure, shortened: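 Mice bearing the transplanted tumor received compound or vehicle. Survival of the treated group was divided by that of the vehicle-treated control group to give the ratio.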

[1] = dose: 100.0 mg/kg/injection, schedule: Q01DX001 (ip), vehicle: saline
[2] = dose: 200.0 mg/kg/injection, schedule: Q01DX001 (ip), vehicle: saline
[3] = dose: 400.0 mg/kg/injection, schedule: Q01DX001 (ip), vehicle: saline
[4] = dose: 12.5 mg/kg/injection, schedule: Q01DX009 (ip), vehicle: saline
[5] = dose: 25.0 mg/kg/injection, schedule: Q01DX009 (ip), vehicle: saline
[6] = dose: 75.0 mg/kg/injection, schedule: Q01DX001 (ip), vehicle: saline
[7] = dose: 100.0 mg/kg/injection, schedule: Q04DX003 (ip), vehicle: saline with Tween-80
[8] = dose: 200.0 mg/kg/injection, schedule: Q04DX003 (ip), vehicle: saline with Tween-80
[9] = dose: 400.0 mg/kg/injection, schedule: Q04DX003 (ip), vehicle: saline with Tween-80
[10] = dose: 100.0 mg/kg/injection, schedule: Q01DX001 (ip), vehicle: saline with Tween-80
[11] = dose: 100.0 mg/kg/injection, schedule: Q01DX009 (ip), vehicle: saline with Tween-80
[12] = dose: 200.0 mg/kg/injection, schedule: Q01DX001 (ip), vehicle: saline with Tween-80
[13] = dose: 200.0 mg/kg/injection, schedule: Q01DX009 (ip), vehicle: saline with Tween-80
[14] = dose: 400.0 mg/kg/injection, schedule: Q01DX001 (ip), vehicle: saline with Tween-80
[15] = dose: 50.0 mg/kg/injection, schedule: Q01DX009 (ip), vehicle: saline with Tween-80
[16] = dose: 12.5 mg/kg/injection, schedule: Q04DX002 (ip), vehicle: Klucel (hydroxypropylcellulose) (HPC)
[17] = dose: 25.0 mg/kg/injection, schedule: Q04DX002 (ip), vehicle: Klucel (hydroxypropylcellulose) (HPC)
[18] = dose: 50.0 mg/kg/injection, schedule: Q04DX002 (ip), vehicle: Klucel (hydroxypropylcellulose) (HPC)
[19] = dose: 150.0 mg/kg/injection, schedule: Q01DX001 (ip), vehicle: saline

Measured: T/C

CCC(CC=C(C)C)(CC=C(C)C)c1ccncc1 (tested in a mixture with another compound)
inactive: [1] 97 % of control | [2] 102 % of control | [3] 97 % of control

ClCCOCOCCCl
inactive: dose: 20.0 mg/kg/injection, schedule: Q04DX003 (ip), vehicle: Klucel (hydroxypropylcellulose) (HPC) 104 % of control | dose: 40.0 mg/kg/injection, schedule: Q04DX003 (ip), vehicle: Klucel (hydroxypropylcellulose) (HPC) 104 % of control | dose: 80.0 mg/kg/injection, schedule: Q04DX003 (ip), vehicle: Klucel (hydroxypropylcellulose) (HPC) 101 % of control

O=Cc1ccc(O)c(CN2CCCCC2)c1
inactive: dose: 6.25 mg/kg/injection, schedule: Q01DX009 (ip), vehicle: saline 94 % of control | dose: 6.25 mg/kg/injection, schedule: Q04DX003 (ip), vehicle: saline 100 % of control | [4] 107 % of control | dose: 12.5 mg/kg/injection, schedule: Q04DX003 (ip), vehicle: saline 96 % of control | [5] 96 % of control | dose: 25.0 mg/kg/injection, schedule: Q04DX003 (ip), vehicle: saline 103 % of control

C=CCC1(/C(=C\CC)CCC)C(=O)NC(=O)NC1=O
inactive: [6] 96 % of control

CCOc1ccc([N+](=O)[O-])cc1CN(CC)CC
inactive: dose: 5.0 mg/kg/injection, schedule: Q01DX009 (ip), vehicle: saline 97 % of control | dose: 9.5 mg/kg/injection, schedule: Q01DX001 (ip), vehicle: saline 109 % of control | dose: 10.0 mg/kg/injection, schedule: Q01DX009 (ip), vehicle: saline 95 % of control | dose: 10.0 mg/kg/injection, schedule: Q04DX003 (ip), vehicle: saline 97 % of control | dose: 19.0 mg/kg/injection, schedule: Q01DX001 (ip), vehicle: saline 106 % of control | dose: 20.0 mg/kg/injection, schedule: Q01DX009 (ip), vehicle: saline 89 % of control | dose: 20.0 mg/kg/injection, schedule: Q04DX003 (ip), vehicle: saline 102 % of control | dose: 38.0 mg/kg/injection, schedule: Q01DX001 (ip), vehicle: saline 98 % of control

CCCOC(=O)Nc1cccc(OC(=O)NC)c1
inactive: [7] 105 % of control | [8] 94 % of control | [9] 96 % of control

CSc1ccc(NC(=O)Oc2ccc(C(=O)OCc3ccccc3)cc2)cc1
inactive: [10] 100 % of control and 88 % of control | [11] 99 % of control and 87 % of control | dose: 100.0 mg/kg/injection, schedule: Q04DX002 (ip), vehicle: saline with Tween-80 97 % of control and 101 % of control | [7] 102 % of control | [12] 97 % of control | [13] 108 % of control and 89 % of control | dose: 200.0 mg/kg/injection, schedule: Q04DX002 (ip), vehicle: saline with Tween-80 97 % of control and 87 % of control | [8] 103 % of control | [14] 100 % of control | dose: 400.0 mg/kg/injection, schedule: Q01DX009 (ip), vehicle: saline with Tween-80 99 % of control and 92 % of control | dose: 400.0 mg/kg/injection, schedule: Q04DX002 (ip), vehicle: saline with Tween-80 95 % of control and 97 % of control | [9] 103 % of control

Nc1cccc2c1C(=O)c1cc(Cl)c(Cl)cc1C2=O
inactive: [15] 104 % of control | [11] 97 % of control | [13] 89 % of control

CCCCCCCCCCCC(=O)OCC1(C)COC(c2ccccc2)=N1 (centres undefined)
inactive: [10] 97 % of control | [12] 104 % of control | [14] 104 % of control

O=[N+]([O-])c1cc2cc(Br)ccc2o1
inactive: [16] 102 % of control | [17] 106 % of control | [18] 97 % of control

COc1ccc2c(c1)CCN(C1=C(C)C(=O)CC1)C2CC(=O)O (centres undefined)
inactive: [1] 104 % of control | [2] 101 % of control | [3] 90 % of control

NC(N)=NN(CCN(N=O)N=C(N)N)N=O
inactive: dose: 100.0 mg/kg/injection, schedule: Q04DX002 (ip), vehicle: Klucel (hydroxypropylcellulose) (HPC) 96 % of control | dose: 200.0 mg/kg/injection, schedule: Q04DX002 (ip), vehicle: Klucel (hydroxypropylcellulose) (HPC) 104 % of control | dose: 400.0 mg/kg/injection, schedule: Q04DX002 (ip), vehicle: Klucel (hydroxypropylcellulose) (HPC) 86 % of control

O=C(O)c1c(CN2CCOCC2)c(O)c(O)c(O)c1CN1CCOCC1
inactive: [1] 103 % of control | [2] 107 % of control | [3] 103 % of control

COC(CCC#N)c1ccc(C)cc1 (centres undefined)
inactive: dose: 100.0 mg/kg/injection, schedule: Q01DX009 (sc), vehicle: olive oil, sesame oil, peanut oil 102 % of control | dose: 100.0 mg/kg/injection, schedule: Q04DX003 (sc), vehicle: olive oil, sesame oil, peanut oil 108 % of control | dose: 200.0 mg/kg/injection, schedule: Q01DX009 (sc), vehicle: olive oil, sesame oil, peanut oil 91 % of control | dose: 200.0 mg/kg/injection, schedule: Q04DX003 (sc), vehicle: olive oil, sesame oil, peanut oil 108 % of control | dose: 400.0 mg/kg/injection, schedule: Q01DX009 (sc), vehicle: olive oil, sesame oil, peanut oil 98 % of control | dose: 400.0 mg/kg/injection, schedule: Q04DX003 (sc), vehicle: olive oil, sesame oil, peanut oil 96 % of control

OCC1C2CCC(CC2)C1CO (centres undefined)
inactive: [4] 102 % of control | dose: 12.5 mg/kg/injection, schedule: Q04DX003 (ip), vehicle: saline with Tween-80 97 % of control | [5] 106 % of control | dose: 25.0 mg/kg/injection, schedule: Q04DX003 (ip), vehicle: saline with Tween-80 94 % of control | dose: 50.0 mg/kg/injection, schedule: Q04DX003 (ip), vehicle: saline with Tween-80 102 % of control | [7] 96 % of control | [8] 93 % of control | [9] 102 % of control

O=C(O)CCC(=O)Oc1ccccc1
inactive: dose: 100.0 mg/kg/injection, schedule: Q04DX003 (ip), vehicle: other 92 % of control | dose: 200.0 mg/kg/injection, schedule: Q04DX003 (ip), vehicle: other 106 % of control

CN1c2cccc[c]2[Sn]([CH3])([CH3])[c]2ccccc21
inactive: dose: 100.0 mg/kg/injection, schedule: Q01DX001 (ip), vehicle: other 92 % of control | dose: 200.0 mg/kg/injection, schedule: Q01DX001 (ip), vehicle: other 92 % of control | dose: 400.0 mg/kg/injection, schedule: Q01DX001 (ip), vehicle: other 108 % of control

O=C(O)CCCc1cc(O)c2c(c1O)C(=O)c1ccccc1C2=O
inactive: dose: 100.0 mg/kg/injection, schedule: Q01DX001 (ip), vehicle: saline sonified 98 % of control | dose: 200.0 mg/kg/injection, schedule: Q01DX001 (ip), vehicle: saline sonified 102 % of control | dose: 400.0 mg/kg/injection, schedule: Q01DX001 (ip), vehicle: saline sonified 118 % of control

Nc1nc(NCCCc2ccccc2)c2[nH]cnc2n1
inactive: [16] 98 % of control | [17] 95 % of control | [18] 102 % of control

CCc1ccc(NS(=O)(=O)c2c(C)cc(C)cc2C)cc1
inactive: dose: 100.0 mg/kg/injection, schedule: Q01DX009 (ip), vehicle: Klucel (hydroxypropylcellulose) (HPC) 101 % of control | dose: 200.0 mg/kg/injection, schedule: Q01DX009 (ip), vehicle: Klucel (hydroxypropylcellulose) (HPC) 105 % of control | dose: 400.0 mg/kg/injection, schedule: Q01DX009 (ip), vehicle: Klucel (hydroxypropylcellulose) (HPC) 97 % of control

C=CCOC(=O)Nc1ccc(S(=O)(=O)NC2CCCCC2)cc1
inactive: [1] 92 % of control | [2] 94 % of control | [3] 97 % of control

CN1CC2CCCCC1C2OC(=O)C(c1ccccc1)c1ccccc1 (centres undefined)
inactive: [6] 110 % of control | [19] 101 % of control

CNC(=O)NC(C)=C(C#N)C#N
inactive: [6] 94 % of control | [19] 111 % of control

O=C1OC(=O)C2C1C1C=CC2C12CC2 (centres undefined)
inactive: [15] 97 % of control | [11] 102 % of control | [13] 105 % of control

COCCCNP(=S)(N1CC1)N1CC1
inactive: dose: 2.0 mg/kg/injection, schedule: Q01DX Z (ip), vehicle: saline 92 % of control | dose: 4.0 mg/kg/injection, schedule: Q01DX Z (ip), vehicle: saline 116 % of control
